“Also recorded” adds a separate entry of the source. Non-standard residues stand in square brackets, D forms with d. Residues, ends and D or L forms follow the SMILES beside them. Nle = CCCC[C@H](N)C(=O)O
Experiments:
661W cells [1] = test: XF24 assay of stressor effects on respiratory capacity (OCR, FCCP response); assay type: cell-based, mouse; conditions: for respiratory / mitochondrial capacity (FCCP-uncoupled OCR): IBMX 1.0 mM in FIG. 19; for mitochondrial capacity measured from the FCCP response: 30 min after treatment
Protocol: (§1) 28. FIG. 17. Calcium and oxidative stress attenuate mitochondrial capacity. Shown are 661W cell OCR responses to 1 μM FCCP after treatment with listed concentrations of (A) A23187 and (B) tBuOOH. In A OCR rates are given as pmol/min, in B the rates for each well have been normalized to the basal rates measured prior to FCCP (which standardizes comparisons between data measured on different days). 661W cells analyzed by XF24 were incubated for 24 h and viability determined using ethidium bromide/acridine orange. Images of cells treated with (C) 1 μM A23187 and (D) control represent 47% and >95% viability.
30. FIG. 19. Mild calcium or oxidative stress reduces metabolic capacity in a photoreceptor cell line. (Calcium stress, left panel) 661W cells were treated with vehicle control (dark blue) or 1.0 mM IBMX (turquoise), followed by treatment with 1 μM FCCP. […] (Oxidant stress, right panel)
(§2) 257. As shown in FIG. 1 and FIG. 2 below, compounds CB11, CB11a, CB11b, CB11c, CB11d and IBMX (see FIG. 1); compounds CB12, CB12a, CB12b, CB12c, CB12d and IBMX (see FIG. 2) were tested against the calcium-induced mitochondrial damage assay. IBMX is a membrane-permeable inhibitor of β-phosphodiesterase which results in a buildup of cGMP. An excess of cGMP increases the number of cGMP-gated cation channels in an open configuration, allowing an influx of Ca2+ into the cell, leading to mitochondrial damage and eventual cell death.
268. In preliminary experiments the energy metabolism of 661W cells using the XF24. 661W cells were analyzed and produce large amounts of lactic acid from glucose oxidation [Winkler B S, Starnes C A, Sauer M W, Firouzgan Z, Chen S C: Cultured retinal neuronal cells and Muller cells both show net production of lactate. Neurochem Int 2004, 45(2-3):311-320]. […] To examine whether the metabolic responses were predictive of cell death due to calcium or oxidant stress, the cells were exposed to calcium ionophore A23187 or the oxidant tert-butylhydroperoxide (tBuOOH) on the XF24 instrument for 30 min after which some of the treated cells were exposed to the protonophore FCCP to uncouple the mitochondrial membrane potential. The uncoupling attenuates ATP production and causes the mitochondria to dramatically increase oxygen consumption in an attempt to recover the lost ATP production capacity. The increase in oxygen consumption is a measure of the total mitochondrial capacity or reserve.
271. In preliminary studies, the direct oxidant tert-butylhydroperoxide (tBuOOH) was used to induce oxidant stress and the agent A23187, a calcium ionophore that binds to and carries Ca^2+ across cellular membranes, including mitochondrial membranes (Abbott, B. J., Fukuda, D. S., Dorman, D. E., Occolowitz, J. L., Debono, M., and Farhner, L. (1979) Antimicrob. Agents Chemother. 16(6), 808-812). Because A23187 rapidly increases intracellular and intra-mitochondrial calcium concentrations, it triggers Ca^2+-mediated programmed cell death (2. Orrenius, S., Zhivotovsky, B., and Nicotera, P. (2003) Nat. Rev. Mol. Cell. Biol. 4, 552-565; Hajnóczky, G., Davies, E., and Madesh, M. (2003) Biochem. Biophys. Res. Commun. 304, 445-454). One could argue that these two agents are akin to hammers rather than the more subtle, chronic oxidant and calcium stressors seen in degenerative processes. The XF24 assay was validated using two more physiologically relevant stressors. To induce calcium stress, 3-Isobutyl-1-methyl xanthine (IBMX), a non-selective phosphodiesterase (PDE) inhibitor was used (4. Zhang, X., Feng, Q., and Cote, R. H. (2005) Invest. Ophthalmol. Vis. Sci. 46(9), 3060-3066). Inhibition of PDEs causes increases in the intracellular cAMP and cGMP concentrations leading to slow activation cGMP-gated cation channels and an increase of Ca^2+ flux into the cell (5. Yarfitz, S., and Hurley, J. B. (1994) J. Biol. Chem. 269(20), 14329-14332; Koutalos, Y., and Yau, K.-W. (1996) Trends Neurosci. 19, 73-81). […]

661W cells [2] = test: Calcium-induced mitochondrial damage assay (IBMX, OCR on Seahorse XF24); assay type: cell-based, mouse; conditions: pretreatment with 1 μM for 1 h prior to addition of IBMX
Protocol: 32. FIG. 21. Secondary screening of neuroprotective agents discovered from library screening. The 661W cells were pretreated for 1 h with lead compounds, CB10-CB12 (1 μM), prior to treatment with 600 μM IBMX. The basal and uncoupled OCR rates were measured.
as §2
274. […] A higher stringency for hit selection than is commonly used was performed to avoid the less productive process of filtering through a large number of poor leads. It is notable that the complete ChemBridge library contains over 700,000 molecules that are searchable based on chemical structure, physicochemical properties, etc. To identify the active species present in the initial pool of 12 compounds were screened and then chemical similarity searches on the larger 700,000 member library was performed to identify other molecules that define pharmacophores. This strategy has more efficiently lead to agents that block retinal degeneration. Also, this strategy enabled quick identification of a small number of agents that that were moved into more sophisticated cellular and physiological models so as to better validate the mechanisms. For example, in the high-throughput screen a very toxic, non-specific calcium ionophore assay was used which gives a rather broad readout of cell “viability”. In the secondary assays the specificity and stringency were increased via use of more specific calcium stressor, 3-isobutyl-1-methylxanthine (IBMX) and a more relevant metabolic read-out, loss of respiratory capacity as measured from the attenuation of the uncoupled respiratory rate as measured with the Seahorse instrument. This assay format was used to evaluate the 12 initial lead compounds and are pleased to report that several of these agents do indeed protect against loss in respiratory capacity due to IBMX exposure.

661W cells [3] = test: A23187 viability screen (MTS assay); assay type: cell-based, mouse; conditions: 50 μM, 1 μM A23187, 24 hours
Source text: 273. ChemBridge, Inc. has a large (>700,000) commercially available chemical library and a DIVERSet library was obtained, which is a subset of compounds selected for diversity and favorable drug-like properties. Because the DIVERSet library is much too large for lower throughput, high-content screens, single end-point assays amenable to high-throughput were developed and disclosed herein. […] A viability assay using treatments with A23187 to search for molecules in the library that protect from acute calcium toxicity was developed and disclosed herein. The concentration of A23187 was selected to give about 50% death and pools that protected against death were identified. The assay format was optimized and validated using calpeptin, a […] as a positive control. In brief, 661W cells were maintained in DMEM supplemented with 10% FBS. For the assay, 100 μL of 70,000 cells/mL cells were seeded into each well of 96 well plates using DMEM supplemented with 5% FBS. Cells were then allowed to grow to confluency for 48 hours. Library compounds were added in 2 μL containing 10 compounds at 20 μM each. Ionophore A23187 was then added in 1 μL for a final concentration of 1 μM and after 24 hours cells were analyzed for viability using the MTS assay according to the manufactures protocol (Promega CellTiter 96® Cat.#G5421). […]

661W cells [4] = test: XF24 assay of stressor effects on respiratory capacity (OCR, FCCP response); assay type: cell-based, mouse; conditions: 661W cells treated with 1 μM IBMX for 20 min
rd1 photoreceptors = test: rd1 mouse retinal organ culture assay (retina-RPE explants, photoreceptor row count); assay type: cell-based
[5] = Viability of stressor-treated cells by dye exclusion 24 h after treatment; assay type: cell-based; conditions: mouse; 661W cells; 1 μM A23187; incubated 24 h; ethidium bromide/acridine orange
Protocol: as §1
269. The cells were then returned to the incubator and analyzed for cell viability via dye exclusion 24 h after treatment (FIGS. 17C,D). […] In addition, the higher concentrations produced profound changes in metabolic phenotype as evidenced in the cell's responses to the uncoupler FFCP. […] In both cases, reduced OCR and ECAR values are predictive of cell death although at intermediate concentrations, where cell death is still occurring, the ECAR rates actually increase, particularly for tBuOOH treatments.

## C[n+]1ccc(-c2cc[n+](C)cc2)cc1 [paraquat]
661W cells [1]
  effect on basal respiration rates: little or no direct effect on basal respiration rates
  respiratory / mitochondrial capacity (FCCP-uncoupled OCR): same types of loss in mitochondrial capacity

## COC(=O)c1ccccc1NC(=O)c1sc(-c2cccnc2)nc1C [CB12b]
661W cells [2]
  basal and maximal OCR (oxygen consumption rate): improvement of both basal and maximal OCR

## Cc1nc(-c2cccnc2)sc1C(=O)Nc1ccc(C(N)=O)cc1 [CB12d]
661W cells [2]
  basal and maximal OCR (oxygen consumption rate): improvement of both basal and maximal OCR

## CCCC[C@@H](C=O)NC(=O)[C@H](CC(C)C)NC(=O)[C@H](CC(C)C)NC(C)=O [Calpain Inhibitor I] (Ac-Leu-Leu-[Nle]-aldehyde)
661W cells [3]
  reversal of ionophore A23187 effects on viability: able to reverse ionophore effects

## CC(C)(C)OO [tBuOOH, tert-butylhydroperoxide]
661W cells [1]
  mitochondrial capacity measured from the FCCP response: significant loss of mitochondrial capacity

## CC(C)Cn1c(=O)n(C)c(=O)c2[nH]cnc21 [IBMX, 3-Isobutyl-1-methyl xanthine]
661W cells [4]
  loss in metabolic capacity as measured from the FCCP response: ~50%
661W cells [1]
  effect on basal respiration rates: little or no direct effect on basal respiration rates
  respiratory / mitochondrial capacity (FCCP-uncoupled OCR): diminished respiratory capacity compared to control; also recorded: same types of loss in mitochondrial capacity
661W cells [1]; 600 μM IBMX
  basal and uncoupled OCR relative to untreated control: attenuates basal and uncoupled OCR
661W cells [1]; 500-600 μM IBMX
  decrease in both basal and maximal (FCCP-uncoupled) respiratory capacity: ~50%

## CCCC[C@@H](C=O)NC(=O)[C@H](CC(C)C)NC(=O)OCc1ccccc1 [calpeptin]
rd1 photoreceptors; rd1 mouse organ cultures exposed to 1 mM from P11 to P21
  rows of photoreceptors (average): 3.3±0.3 rows of photoreceptors
rd1 photoreceptors; rd1 retina-RPE sandwich cultures P10 through P21, quantified from images
  rows of photoreceptors remaining at P21: about 3.5 rows

## O=C(CC1(O)C(=O)N(CCc2ccccc2)c2ccccc21)c1cccnc1 (stereo not shown) [CB11b]
661W cells [2]
  basal and maximal OCR (oxygen consumption rate): improvement of both basal and maximal OCR

## CCOC(=O)CN1C(=O)C(O)(CC(=O)c2ccccn2)c2ccccc21 (stereo not shown) [CB11d]
661W cells [2]
  basal and maximal OCR (oxygen consumption rate): improvement of both basal and maximal OCR

## CC(=O)Nc1cccc(NC(=O)c2sc(-c3cccnc3)nc2C)c1 [CB12c]
661W cells [2]
  basal and maximal OCR (oxygen consumption rate): improvement of both basal and maximal OCR

## CNc1ccc2oc(C[C@H]3O[C@@]4(CC[C@H]3C)O[C@H]([C@H](C)C(=O)c3ccc[nH]3)[C@H](C)C[C@H]4C)nc2c1C(=O)O [A23187]
[5]
  viability at 24 h, 1 μM: 47%
661W cells [1]
  mitochondrial capacity measured from the FCCP response: significant loss of mitochondrial capacity

## O=C(CC1(O)C(=O)N(CCc2ccccc2)c2ccc(Cl)cc21)c1ccccn1 (stereo not shown) [CB11c]
661W cells [2]
  basal and maximal OCR (oxygen consumption rate): improvement of both basal and maximal OCR
